From ChEMBL document CHEMBL3885881, “DrugMatrix”

Organism: Rattus norvegicus
Assay: DrugMatrix - Regimen: Daily Repeat
Format: toxicity, organism-based, Sprague-Dawley
Set-up: regimen Daily Repeat, gender Male, age 6-8 weeks
Conditions: in vivo, po, route oral GAVAGE, vehicle .5 % CMC; for BASOPHIL / EOSINOPHIL / ERYTHROCYTE COUNT / HEMATOCRIT / HEMOGLOBIN / LEUKOCYTE COUNT / LYMPHOCYTE / MEAN CORPUSCULAR HEMOGLOBIN / MEAN CORPUSCULAR HEMOGLOBIN CONCENTRATION / MEAN CORPUSCULAR VOLUME / MONOCYTE / NEUTROPHIL / PLATELET COUNT: tissue Blood; for ALANINE AMINOTRANSFERASE / ALBUMIN / ALKALINE PHOSPHATASE / ASPARTATE AMINOTRANSFERASE / BLOOD UREA NITROGEN / CHLORIDE / CHOLESTEROL / CREATINE PHOSPHOKINASE / CREATININE / GLUCOSE / PHOSPHORUS / POTASSIUM / SODIUM / TOTAL BILIRUBIN / TOTAL PROTEIN: tissue Plasma
[1] = 0 mg/kg, 72 h, dose level Control, time 3 day
[2] = 0 mg/kg, 120 h, dose level Control, time 5 day
[3] = 570 mg/kg, 72 h, dose level High, time 3 day
[4] = 570 mg/kg, 120 h, dose level High, time 5 day

COc1ccc2c(c1OC)C(=O)O[C@@H]2[C@H]1c2c(cc3c(c2OC)OCO3)CCN1C [NOSCAPINE]
BASOPHIL [1]: 0.68% | EOSINOPHIL [1]: 0.46% | ERYTHROCYTE COUNT [1]: 7.15 x10E6/uL | HEMATOCRIT [1]: 45.44% | HEMOGLOBIN [1]: 14.1 G/DL | LEUKOCYTE COUNT [1]: 9.78 x10E3/uL | LYMPHOCYTE [1]: 84.44% | MEAN CORPUSCULAR HEMOGLOBIN [1]: 19.72 pg | MEAN CORPUSCULAR HEMOGLOBIN CONCENTRATION [1]: 31 G/DL | MEAN CORPUSCULAR VOLUME [1]: 63.66 fL | MONOCYTE [1]: 2.14% | NEUTROPHIL [1]: 11.16% | PLATELET COUNT [1]: 1378.2 x10E3/uL | ALANINE AMINOTRANSFERASE [1]: 42.33 u/L | ALBUMIN [1]: 3.8 G/DL | ALKALINE PHOSPHATASE [1]: 388.17 u/L | ASPARTATE AMINOTRANSFERASE [1]: 68 u/L | BLOOD UREA NITROGEN [1]: 16.17 mg/dL | CHLORIDE [1]: 96.67 MEQ/L | CHOLESTEROL [1]: 71 mg/dL | CREATINE PHOSPHOKINASE [1]: 156.17 u/L | CREATININE [1]: 0.57 mg/dL | GLUCOSE [1]: 193.67 mg/dL | PHOSPHORUS [1]: 11.43 mg/dL | POTASSIUM [1]: 7 MEQ/L | SODIUM [1]: 140.33 MEQ/L | TOTAL BILIRUBIN [1]: 0.48 mg/dL | TOTAL PROTEIN [1]: 6.8 G/DL | BASOPHIL [2]: 1.47% | EOSINOPHIL [2]: 1% | ERYTHROCYTE COUNT [2]: 7.12 x10E6/uL | HEMATOCRIT [2]: 45.47% | HEMOGLOBIN [2]: 14.1 G/DL | LEUKOCYTE COUNT [2]: 11.38 x10E3/uL | LYMPHOCYTE [2]: 82.57% | MEAN CORPUSCULAR HEMOGLOBIN [2]: 19.82 pg | MEAN CORPUSCULAR HEMOGLOBIN CONCENTRATION [2]: 31.02 G/DL | MEAN CORPUSCULAR VOLUME [2]: 63.88 fL | MONOCYTE [2]: 2.2% | NEUTROPHIL [2]: 11.97% | PLATELET COUNT [2]: 1267 x10E3/uL | ALANINE AMINOTRANSFERASE [2]: 38 u/L | ALBUMIN [2]: 3.72 G/DL | ALKALINE PHOSPHATASE [2]: 391 u/L | ASPARTATE AMINOTRANSFERASE [2]: 65.83 u/L | BLOOD UREA NITROGEN [2]: 14.17 mg/dL | CHLORIDE [2]: 107.67 MEQ/L | CHOLESTEROL [2]: 61 mg/dL | CREATINE PHOSPHOKINASE [2]: 148.33 u/L | CREATININE [2]: 0.57 mg/dL | GLUCOSE [2]: 177.17 mg/dL | PHOSPHORUS [2]: 12.07 mg/dL | POTASSIUM [2]: 7.2 MEQ/L | SODIUM [2]: 151.5 MEQ/L | TOTAL BILIRUBIN [2]: 0.58 mg/dL | TOTAL PROTEIN [2]: 6.72 G/DL | BASOPHIL [3]: 0.35% | EOSINOPHIL [3]: 0.35% | ERYTHROCYTE COUNT [3]: 7.71 x10E6/uL | HEMATOCRIT [3]: 48.95% | HEMOGLOBIN [3]: 15.2 G/DL | LEUKOCYTE COUNT [3]: 9.57 x10E3/uL | LYMPHOCYTE [3]: 82.8% | MEAN CORPUSCULAR HEMOGLOBIN [3]: 19.7 pg | MEAN CORPUSCULAR HEMOGLOBIN CONCENTRATION [3]: 31.05 G/DL | MEAN CORPUSCULAR VOLUME [3]: 63.4 fL | MONOCYTE [3]: 3.35% | NEUTROPHIL [3]: 12% | PLATELET COUNT [3]: 1473 x10E3/uL | ALANINE AMINOTRANSFERASE [3]: 27.5 u/L | ALBUMIN [3]: 3.9 G/DL | ALKALINE PHOSPHATASE [3]: 381.5 u/L | ASPARTATE AMINOTRANSFERASE [3]: 56 u/L | BLOOD UREA NITROGEN [3]: 17.5 mg/dL | CHLORIDE [3]: 96 MEQ/L | CHOLESTEROL [3]: 131 mg/dL | CREATINE PHOSPHOKINASE [3]: 176 u/L | CREATININE [3]: 0.45 mg/dL | GLUCOSE [3]: 166 mg/dL | PHOSPHORUS [3]: 12.8 mg/dL | POTASSIUM [3]: 6.5 MEQ/L | SODIUM [3]: 140.5 MEQ/L | TOTAL BILIRUBIN [3]: 0.55 mg/dL | TOTAL PROTEIN [3]: 7.25 G/DL | BASOPHIL [4]: 1.17% | EOSINOPHIL [4]: 0.53% | ERYTHROCYTE COUNT [4]: 7.1 x10E6/uL | HEMATOCRIT [4]: 42.8% | HEMOGLOBIN [4]: 13.67 G/DL | LEUKOCYTE COUNT [4]: 9.28 x10E3/uL | LYMPHOCYTE [4]: 75.47% | MEAN CORPUSCULAR HEMOGLOBIN [4]: 19.27 pg | MEAN CORPUSCULAR HEMOGLOBIN CONCENTRATION [4]: 31.97 G/DL | MEAN CORPUSCULAR VOLUME [4]: 60.33 fL | MONOCYTE [4]: 2.07% | NEUTROPHIL [4]: 19.87% | PLATELET COUNT [4]: 1766.33 x10E3/uL | ALANINE AMINOTRANSFERASE [4]: 36 u/L | ALBUMIN [4]: 3.7 G/DL | ALKALINE PHOSPHATASE [4]: 318.5 u/L | ASPARTATE AMINOTRANSFERASE [4]: 57 u/L | BLOOD UREA NITROGEN [4]: 13.5 mg/dL | CHLORIDE [4]: 106 MEQ/L | CHOLESTEROL [4]: 100 mg/dL | CREATINE PHOSPHOKINASE [4]: 142 u/L | CREATININE [4]: 0.45 mg/dL | GLUCOSE [4]: 188 mg/dL | PHOSPHORUS [4]: 12.45 mg/dL | POTASSIUM [4]: 7 MEQ/L | SODIUM [4]: 149 MEQ/L | TOTAL BILIRUBIN [4]: 0.2 mg/dL | TOTAL PROTEIN [4]: 6.75 G/DL
